In US20230080054A1 (ILDONG PHARMACEUTICAL CO., LTD., priority 2021, published 2023):

How the values were obtained:
human ANO6 [1] = target: T1, human ANO6 (Homo sapiens, UniProt Q4KMQ2); experiment: YFP quenching assay (ANO6 ion channel activity); type: cell-based; details: test compound 1 μM, 10 μM ionomycin, read-out: Inhibition Level 1 μM
T1 construct: expressed in transfected cells
T1 sequence (Q4KMQ2 1-931 isoform Q4KMQ2-2): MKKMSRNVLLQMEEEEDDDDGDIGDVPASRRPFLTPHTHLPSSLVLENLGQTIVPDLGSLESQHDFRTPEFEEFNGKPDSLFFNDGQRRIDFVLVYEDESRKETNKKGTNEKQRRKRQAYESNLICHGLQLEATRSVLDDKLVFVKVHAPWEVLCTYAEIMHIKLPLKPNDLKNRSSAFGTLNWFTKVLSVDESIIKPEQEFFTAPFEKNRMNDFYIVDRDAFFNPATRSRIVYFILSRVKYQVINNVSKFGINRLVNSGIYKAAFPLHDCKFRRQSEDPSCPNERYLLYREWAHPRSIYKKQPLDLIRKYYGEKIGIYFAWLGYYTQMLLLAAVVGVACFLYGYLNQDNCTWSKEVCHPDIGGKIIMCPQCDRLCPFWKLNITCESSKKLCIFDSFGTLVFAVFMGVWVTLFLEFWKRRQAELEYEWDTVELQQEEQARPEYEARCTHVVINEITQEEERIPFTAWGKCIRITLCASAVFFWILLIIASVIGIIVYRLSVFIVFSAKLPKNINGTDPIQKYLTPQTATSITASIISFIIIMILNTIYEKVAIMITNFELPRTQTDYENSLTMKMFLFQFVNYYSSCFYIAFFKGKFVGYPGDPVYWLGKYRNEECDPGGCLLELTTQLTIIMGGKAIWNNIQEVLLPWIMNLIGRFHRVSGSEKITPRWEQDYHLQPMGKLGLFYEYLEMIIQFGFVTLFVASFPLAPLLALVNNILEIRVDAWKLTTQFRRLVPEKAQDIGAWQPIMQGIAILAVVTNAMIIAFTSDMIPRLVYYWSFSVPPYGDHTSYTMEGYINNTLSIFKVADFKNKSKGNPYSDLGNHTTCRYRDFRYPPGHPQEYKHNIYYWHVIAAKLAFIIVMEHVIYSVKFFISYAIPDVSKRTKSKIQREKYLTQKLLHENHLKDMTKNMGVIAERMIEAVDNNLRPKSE
Outline: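 FRT cells stably expressing human ANO6 and YFP-H148Q/I152L/F46L, preincubated 10 min at 40° C with compounds (1% DMSO) in PBS. Quench read every 0.4 s after injecting 140 mM SCN- with 10 μM ionomycin; % inhibition from the 3.6–7.6 s fluorescence difference, normalised to no-ionomycin (100%) and ionomycin-only (0%) wells, duplicate or triplicate.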

human ANO6 [2] = target: T1, human ANO6; experiment: LACT C2 assay (phosphatidylserine scramblase function assay); type: cell-based; details: FRT cells expressing human ANO6, 10 μM ionomycin; for inhibition at 0.1 µM: test compound 100 nM, read-out: Inhibition Level 100 nM; for inhibition at 1 µM: test compound 1 μM, read-out: Inhibition Level 1 μM
Outline: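 FRT cells stably expressing human ANO6 were pretreated with compound (1% DMSO) for 10 min, then stimulated with 10 μM ionomycin for 10 min. Surface phosphatidylserine was stained with 500 nM Lact-C2-GFP and quantified by imaging. Inhibition was scaled between unstimulated (100%) and ionomycin-only (0%) controls, averaged over triplicates.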

O=C(N[C@@H]1C[C@H]1c1ccccc1)c1cccc(Nc2ccc(-c3cccc(F)c3)cn2)c1 [Compound 123, 3-{[5-(3-fluorophenyl)pyridin-2-yl]amino}-N-[(1R,2S)-2-phenylcyclopropyl]benzamide]
≥ 60%: inhibition at 1 µM (human ANO6 [1]) | inhibition at 0.1 µM (human ANO6 [2]) | inhibition at 1 µM (human ANO6 [2])

O=C(NCCC1CCCCC1)c1cccc(Nc2ncc(-c3cccc(F)c3)cn2)c1 [Compound 80, N-(2-cyclohexylethyl)-3-{[5-(3-fluorophenyl)pyrimidin-2-yl]amino}benzamide]
≥ 60%: inhibition at 1 µM (human ANO6 [1]) | inhibition at 0.1 µM (human ANO6 [2]) | inhibition at 1 µM (human ANO6 [2])

O=C(N[C@@H]1C[C@H]1c1ccccc1)c1cccc(Nc2ncc(-c3cccc(F)c3)cn2)c1 [Compound 119, 3-{[5-(3-fluorophenyl)pyrimidin-2-yl]amino}-N-[(1R,2S)-2-phenylcyclopropyl]benzamide]
≥ 60%: inhibition at 1 µM (human ANO6 [1]) | inhibition at 0.1 µM (human ANO6 [2]) | inhibition at 1 µM (human ANO6 [2])

O=C(Nc1ccc(Cl)c(Cl)c1)c1cccc(Nc2ncc(-c3cccc(F)c3)cn2)c1 [Compound 118, N-(3,4-dichlorophenyl)-3-{[5-(3-fluorophenyl)pyrimidin-2-yl]amino}benzamide]
≥ 60%: inhibition at 1 µM (human ANO6 [1]) | inhibition at 0.1 µM (human ANO6 [2]) | inhibition at 1 µM (human ANO6 [2])

O=C(Nc1cccc(F)c1)c1cccc(Nc2ccc(-c3cccc(F)c3)cn2)c1 [Compound 122, N-(3-fluorophenyl)-3-{[5-(3-fluorophenyl)pyridin-2-yl]amino}benzamide]
≥ 60%: inhibition at 1 µM (human ANO6 [1]) | inhibition at 0.1 µM (human ANO6 [2]) | inhibition at 1 µM (human ANO6 [2])

O=C(NCCc1cccc(C(F)(F)F)c1)c1cccc(Nc2ncc(-c3cccc(F)c3)cn2)c1 [Compound 79, 3-{[5-(3-fluorophenyl)pyrimidin-2-yl]amino}-N-{2-[3-(trifluoromethyl)phenyl]ethyl}benzamide]
≥ 60%: inhibition at 1 µM (human ANO6 [1]) | inhibition at 0.1 µM (human ANO6 [2]) | inhibition at 1 µM (human ANO6 [2])

O=C(N[C@@H]1C[C@H]1c1ccccc1)c1cccc(Nc2ccc(-c3ccccc3)nn2)c1 [Compound 68, N-[(1R,2S)-2-phenylcyclopropyl]-3-[(6-phenylpyridazin-3-yl)amino]benzamide]
≥ 60%: inhibition at 1 µM (human ANO6 [1]) | inhibition at 0.1 µM (human ANO6 [2]) | inhibition at 1 µM (human ANO6 [2])
